Read-outs that look alike come from different tables or passages of the source.
Legend:
human isoQC (S53-L382) [1] = target: T1, human isoQC (S53-L382) (Homo sapiens, UniProt Q9NXS2); experiment: Assay 2 - isoQC potency, mass spectrometry-based enzymatic potency assay; type: biochemical; details: mass spectrometry read-out, 7.5 nM isoQC, 10 μM H-Gln-AMC; read-out: isoQc Pot. Assay No. 2
T1 construct: enzymatically active region of human isoQC (S53-L382; see, e.g., Huang et al., 2011); GST-Enterokinase site (N, cleaved yes); made in house; host or cells: E. coli
T1 sequence (Q9NXS2 53-382): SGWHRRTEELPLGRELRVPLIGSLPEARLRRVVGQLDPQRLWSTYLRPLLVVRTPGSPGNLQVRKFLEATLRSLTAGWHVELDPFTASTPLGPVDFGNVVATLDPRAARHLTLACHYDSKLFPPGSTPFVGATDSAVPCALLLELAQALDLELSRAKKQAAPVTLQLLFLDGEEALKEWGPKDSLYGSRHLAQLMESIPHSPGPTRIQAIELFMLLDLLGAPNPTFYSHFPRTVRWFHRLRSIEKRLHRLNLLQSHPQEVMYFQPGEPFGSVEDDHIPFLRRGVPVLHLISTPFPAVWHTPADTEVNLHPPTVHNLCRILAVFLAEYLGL
Method: (§1) The Golgi luminal, enzymatically active region of human isoQC (S53-L382; see, e.g., Huang et al., 2011) was obtained by expression in E. coli of an N-terminally GST-Enterokinase and C-terminally 6×His tagged construct in the pET41(+) vector and subsequent purification using talon beads and GST beads, enterokinase digestion and further purification with a final formulation in 25 mM Tris pH 8.0/150 mM NaCl/1 mM TCEP. Absence of pyroglutamylating activity in an enzymatic dead variant that was cloned, expressed, and purified in parallel ruled out that the purification strategy isolates any endogenously present pyroglutamylating activity.
(§2) EC50's of test compounds were determined by incubating 11-point two-fold dilutions of test compound in 20 μL volumes in the presence of 7.5 nM isoQC and 10 μM H-Gln-AMC using 50 mM Tris-HCl pH 8.0 as assay buffer for 2 hours at room temperature before stopping the reaction by the addition of 2 volumes of methanol. Both the substrate and the product of this reaction were read out using an Agilent RapidFire microfluidic solid phase sample extraction system coupled to an AB Sciex API 4000 triple quadrupole mass spectrometer, in negative ion mode, at m/z of 301.9 and 284.9 respectively. The actual readout was defined as P/(S+P), where P is the product signal area and S the substrate signal area. EC50's were calculated by four parameter sigmoidal model fitting.

recombinant human QC = target: T2, recombinant human QC (Homo sapiens, UniProt Q16769); experiment: Assay 4 - QC potency, mass spectrometry-based enzymatic potency assay; type: biochemical; details: mass spectrometry read-out; read-out: QC Pot. Assay No. 4
T2 construct: His6 (N); purchased R&D Systems
T2 sequence (Q16769 29-361): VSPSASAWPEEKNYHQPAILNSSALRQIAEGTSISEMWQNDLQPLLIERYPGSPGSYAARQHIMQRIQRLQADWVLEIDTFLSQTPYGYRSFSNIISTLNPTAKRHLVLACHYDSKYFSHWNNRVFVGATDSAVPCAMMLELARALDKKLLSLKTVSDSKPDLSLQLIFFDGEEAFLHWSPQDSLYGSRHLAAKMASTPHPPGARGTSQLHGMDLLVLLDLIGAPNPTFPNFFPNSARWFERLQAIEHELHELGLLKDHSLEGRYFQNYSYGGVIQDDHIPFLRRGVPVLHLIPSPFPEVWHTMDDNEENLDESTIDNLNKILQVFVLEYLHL
Method: as §2
EC50's of test compounds were determined in the same way as described in Assay 2 above, except that N-terminally His6-tagged recombinant human QC (R&D Systems) was used instead of isoQC.

[2] = tested on: pyroglutamylated CD47 (pE-CD47) in KBM7 cells; experiment: Assay 6 - cell-based potency assay (pE-CD47 CC2C6 staining vs total CD47); design: species or system human; details: Homo sapiens, KBM-7, 72 h, CC2C6 signal
Method: Cells were spun for 4 minutes at 1500 rpm and washed once with PBS/0.5% BSA. Cells were spun down again and the supernatant was removed and incubated in 100 uL antibody staining solution (PBS/0.5% BSA/0.1 μg/mL DAPI (4′,6-diamidino-2-phenylindole, ThermoFisher Scientific) and a mixture of 1:500 FITC-conjugated anti-human CD47 clone 2D3, which recognizes total CD47 irrespective of its pyroglutamylation state, and 1:500 Alexa647-conjugated anti-human CD47 clone CC2C6, which specifically detects pyroglutamylated CD47) for 2 hours at 4° C. Next, the cells were spun down and washed twice with 2×150 μL PBS/0.5% BSA to remove unbound antibody. Cells were again spun down and taken up in 300 μL FACS buffer before analysis on a Celesta FACS machine (BD Biosciences).
KBM7 cells (Kotecki et al., 1999) were infected with lentivirus produced by transfecting pSCNC-LentiCRISPR-QPCTL or pSCNC-LentiCRISPR-CD47 into HEK-293T cells according to standard protocols. After 24 hours incubation, cells were selected with puromycin (Invivogen, 1 μg/mL) for 48 hours. Cells were stained for total CD47 and pE-CD47 and QPCTL k.o. cells were sorted out as negative for pE-CD47, and CD47 k.o. cells as negative for total CD47, using a FACSAria III and FACS Diva software (BD Biosciences).
In order to test compounds for their effect on pyroglutamylation in live cells, 25000 KBM7 cells per well were seeded in a 96-well U-bottom plate in 150 μl IMDM/10% FCS/1% Pen/Strep medium and a 10-point 2-fold dilution range of test compounds. After 72 hours incubation at 37° C., 5% CO2, cells were stained for total CD47 and pE-CD47 and analyzed on a BD Celesta using FACS Diva software (BD Biosciences). Cells gated for DAPI negativity were recorded and the median fluorescence intensity (MFI) of each sample was transformed to linearly scale between the MFI's of wildtype and CD47 knockout cells (in case of the 2D3 antibody) and the wildtype and QPCTL knockout cells (in case of the CC2C6 antibody). IC50's were calculated by 3 parameter logistic regression of the CC2C6 signal vs. compound concentration, where the top of the sigmoidal curve was fixed at 1, using R and the drc package (http://www.r-project.org, https://cran.r-project.org/web/packages/drc/index.html).

human isoQC (S53-L382) [3] = target: T1, human isoQC (S53-L382); experiment: Assay 1 - isoQC inhibition, fluorescent enzymatic assay (single concentration); type: biochemical; details: isoQC inhibition at 250 nM test compound; read-out: isoQc Inh. Assay No. 1
Method: Initially, isoQC inhibitory activity was measured at a single concentration in a fluorescent-based assay (Assay 1 below). In order to establish the inhibitory activity more quantitatively, IC50 values were obtained using a mass spectrometry-based assay where pyroglutamylation by either isoQC or QC was measured (Assays 2 and 4, respectively, below). Alternatively, IC50 values for isoQC or QC were obtained using a fluorescence-based assay (Assays 3 and 5 respectively, below).
as §1
Pyroglutamylation was measured by conversion of glutamine-4-amino-7-methylcoumarine (H-Gln-AMC, Bachem) to pyroglutamyl-AMC, which is subsequently a specific substrate for pyroglutamylaminopeptidase (pGAPase, Qiagen), releasing free AMC which can be fluorescently detected. For a typical inhibition assay, 15 μL 20 μM h-Gln-AMC (diluted from a 40 mM stock dissolved in 25 mM HEPES using 50 mM Tris-HCl pH 8.0) was pipetted into a 96-well plate on ice. Next, 7.5 μL 1 μM test compound (diluted from a 10 mM stock dissolved in DMSO using 50 mM Tris-HCl) was added. Finally, 7.5 μL, 3 ng/μL recombinant isoQC enzyme was added and the reaction mixture was incubated for 1 hour at 37° C. A 5 minute incubation at 98° C. was then performed to denature the isoQC enzyme and stop the reaction.
To detect the amount of pyroglutamyl-AMC formed, a 96-well plate was prepared with 25 μL 0.125 U/mL pGAPase enzyme diluted in 50 mM Tris-HCl pH 8.0 containing 10 mM dithiothreitol (DTT). 25 μL of the pyroglutamylation reaction mixture was transferred into the plate containing the pGAPase solutions while on ice. Once done, the plate was moved over to a Spectramax ID3 fluorescent plate-reader to monitor and record the maximum fluorescence at 380 nm excitation/450 nm emission over a period of 20 minutes while keeping the temperature at 37° C.
DMSO concentrations during the assay never exceeded 1% and activities were compared to controls containing only the same amount of DMSO and no test compound. […] Test compounds were reported as active when <40% of background corrected signal was measured as compared to DMSO controls.

[4] = read-out: Cell Pot. Assay No. 6
[5] = Table 2, read-out: Cell Potency Assay 6 (Comparison Data)

Compound	IC50 (human isoQC (S53-L382) [1]) [nM]	IC50 (recombinant human QC) [nM]	IC50 [2, 4] [nM]	inhibition at 0.25 µM (human isoQC (S53-L382) [3]) [%]	IC50 [2, 5] [nM]
CCCOc1ccc(C2c3c(nn(C4CCC4)c3C)C(=O)N2c2ccc3[nH]cnc3c2)cc1 (stereo not drawn) [FRPPO-033]	100 to 5000	100 to 5000	1000 to 5000	> 40	
CCCOc1ccc(C2c3c(nn(CC(F)(F)F)c3C)C(=O)N2c2ccc3[nH]cnc3c2)cc1 (stereo not drawn) [FRPPO-037]			1000 to 5000	> 40	
Cc1c2c(nn1C)C(=O)N(c1ccc3[nH]cnc3c1)C2c1ccc(N2CCCCC2=O)cc1 (stereo not drawn) [FRPPO-017]	25 to 100	25 to 100	≥ 50000	> 40	
CCCOc1ccc(C2c3c(nn(CC)c3C)C(=O)N2c2ccc3[nH]cnc3c2)cc1 (stereo not drawn) [FRPPO-029]	25 to 100	100 to 5000	< 1000	> 40	
CCCOc1ccc(C2c3c(nn(C)c3C3CC3)C(=O)N2c2ccc3[nH]cnc3c2)cc1 (stereo not drawn) [FRPPO-006]	25 to 100	100 to 5000	< 1000	> 40	
CCCOc1ccc(C2c3c(C)nn(CC(F)(F)F)c3C(=O)N2c2ccc3[nH]cnc3c2)cc1 (stereo not drawn) [FRPPO-023]			5000 to 50000	≤ 40	
CCCOc1ccc(C2c3c(nn(C4CCOCC4)c3C)C(=O)N2c2ccc3[nH]cnc3c2)cc1 (stereo not drawn) [FRPPO-035]	100 to 5000	100 to 5000	1000 to 5000	> 40	
CCCOc1ccc(C2c3c(nn(CC(C)(C)F)c3C)C(=O)N2c2ccc3[nH]cnc3c2)cc1 (stereo not drawn) [FRPPO-038]			1000 to 5000	> 40	
CCCOc1ccc(C2c3c(nn(C)c3CC)C(=O)N2c2ccc3[nH]cnc3c2)cc1 (stereo not drawn) [FRPPO-007]	25 to 100	25 to 100	< 1000	> 40	
Cc1c2c(nn1C)C(=O)N(c1ccc3[nH]cnc3c1)C2c1ccc(-c2ccccn2)cc1 (stereo not drawn) [FRPPO-014]	< 25	25 to 100	1000 to 5000	> 40	
CCCOc1ccc(C2c3c(nn(C)c3C)C(=O)N2c2ccc3[nH]cnc3c2)c(Cl)c1 (stereo not drawn) [FRPPO-004]	< 25	25 to 100	< 1000	> 40	
Cc1c2c(nn1C)C(=O)N(c1ccc3[nH]cnc3c1)C2c1cccc(F)c1F (stereo not drawn) [FRPPO-012]	< 25	25 to 100	< 1000	> 40	
Cc1c2c(nn1C)C(=O)N(c1ccc3[nH]cnc3c1)C2c1ccc(N2CCS(=O)(=O)CC2)cc1 (stereo not drawn) [FRPPO-027]	< 25	< 25	1000 to 5000	> 40	
Cc1c2c(nn1C)C(=O)N(c1ccc3[nH]cnc3c1)C2c1ccc(Oc2cnn(C)c2)cc1 (stereo not drawn) [FRPPO-025]	< 25	25 to 100	5000 to 50000	> 40	
CCCOc1ccc(C2c3c(C)nn(C(C)C)c3C(=O)N2c2ccc3[nH]cnc3c2)cc1 (stereo not drawn) [FRPPO-021]			5000 to 50000	≤ 40	
CCCOc1ccc(C2c3c(nn(C4CC4)c3C)C(=O)N2c2ccc3[nH]cnc3c2)cc1 (stereo not drawn) [FRPPO-036]			< 1000	> 40	
Cc1c2c(nn1C)C(=O)N(c1ccc3[nH]cnc3c1)C2c1ccc(N2CC(C)NC(C)C2)cc1F (stereo not drawn) [FRPPO-100]			5000 to 50000		

Compound	IC50 (human isoQC (S53-L382) [1]) [nM]	IC50 (recombinant human QC) [nM]	IC50 [2, 4] [nM]	inhibition at 0.25 µM (human isoQC (S53-L382) [3]) [%]	IC50 [2, 5] [nM]
CCCOc1ccc(C2c3c(nn(C)c3C)C(=O)N2c2ccc3nnc(C)n3c2)cc1 (racemic) [REF-003, reference compound]					≥ 50000
Cc1c2c(nn1C)C(=O)N(c1ccc3[nH]cnc3c1)C2c1ccc(N2C3CCC2COC3)cc1F (stereo not drawn) [FRPPO-093]			1000 to 5000		
Cc1c2c(nn1C)C(=O)N(c1ccc3[nH]cnc3c1)C2c1ccc(NCCC(F)(F)F)cc1F (stereo not drawn) [FRPPO-092]			< 1000		
Cc1nc2c(s1)C(c1ccc(Cl)cc1F)N(c1ccc3[nH]cnc3c1)C2=O (stereo not drawn) [FRPPO-064]			5000 to 50000		
Cc1c2c(nn1C)C(=O)N(c1ccc3[nH]cnc3c1)C2c1ccc(N2CC3CC(C2)O3)cc1F (stereo not drawn) [FRPPO-077]			1000 to 5000		
Cc1[nH]nc2c1C(c1ccc(N3CCC(F)(F)C3)cc1F)N(c1ccc3[nH]cnc3c1)C2=O (stereo not drawn) [FRPPO-126B]			1000 to 5000		
Cc1c2c(nn1C)C(=O)N(c1ccc3[nH]cnc3c1)C2c1ccc(N2CCS(=O)(=O)CC2)cc1F (stereo not drawn) [FRPPO-105]			5000 to 50000		
Cc1c2c(nn1C)C(=O)N(c1ccc3[nH]cnc3c1)C2c1ccc(N2CCOCC2)cc1F (stereo not drawn) [FRPPO-078]			< 1000		
Cc1nn(C)c2c1C(c1ccc(-c3cnn(C(F)(F)F)c3)cc1)N(c1ccc3[nH]cnc3c1)C2=O (stereo not drawn) [FRPPO-175]			< 1000		
Cc1c2c(nn1C)C(=O)N(c1ccc3[nH]cnc3c1)C2c1ccc(N2CC3(CCOC3)C2)cc1F (stereo not drawn) [FRPPO-095]			1000 to 5000		
Cc1nc2c(s1)C(=O)N(c1ccc3[nH]cnc3c1)C2c1ccc(Cl)cc1F (stereo not drawn) [FRPPO-058]			5000 to 50000		
CCCOc1ccc(C2c3c(nn(C)c3C)C(=O)N2c2ccc3nncn3n2)cc1 (racemic) [REF-005, reference compound]					≥ 50000
Cc1c2c(nn1C)C(=O)N(c1ccc3[nH]cnc3c1)C2c1ccc(N2CCC3(COC3)C2)cc1F (stereo not drawn) [FRPPO-097]			< 1000		
COC(=O)N1CCN(c2ccc(C3c4c(nn(C)c4C)C(=O)N3c3ccc4[nH]cnc4c3)c(F)c2)CC1 (stereo not drawn) [FRPPO-107]			1000 to 5000		
CCCOc1ccc(C2c3c(C)nn(C4CCC4)c3C(=O)N2c2ccc3[nH]cnc3c2)cc1 (stereo not drawn) [FRPPO-022]			1000 to 5000	≤ 40	
Cc1c2c(nn1C)C(=O)N(c1ccc3[nH]cnc3c1)C2c1ccc(N2CCOC(C(F)(F)F)C2)cc1F (stereo not drawn) [FRPPO-109]			< 1000		

Source: patent US20230077723A1, “N-SUBSTITUTED-3,4-(FUSED 5-RING)-5-PHENYL-PYRROLIDINE-2-ONE COMPOUNDS AS INHIBITORS OF ISOQC AND/OR QC ENZYME” (Scenic Immunology B.V., priority 2019, published 2023)
